From patent US11365199B2, “Pyrazole compounds as modulators of FSHR and uses thereof” (Merck Patent GmbH, priority 2013, dated 2022)

What was measured:
[1] = target: T1, FSHR (Homo sapiens, UniProt P23945); experiment: EC50 of cyclic AMP production in CHO FSHR cells + EC20 FSH (Assay A); type: cell-based; settings: CHO FSHR cells + EC20 FSH, cAMP HTRF; read-out: Assay A: EC50 of cyclic AMP production
T1 construct: expressed in transfected cells; host or cells: CHO (Cho-FSHR-LUC-1-1-43)
T1 sequence (P23945 18-695): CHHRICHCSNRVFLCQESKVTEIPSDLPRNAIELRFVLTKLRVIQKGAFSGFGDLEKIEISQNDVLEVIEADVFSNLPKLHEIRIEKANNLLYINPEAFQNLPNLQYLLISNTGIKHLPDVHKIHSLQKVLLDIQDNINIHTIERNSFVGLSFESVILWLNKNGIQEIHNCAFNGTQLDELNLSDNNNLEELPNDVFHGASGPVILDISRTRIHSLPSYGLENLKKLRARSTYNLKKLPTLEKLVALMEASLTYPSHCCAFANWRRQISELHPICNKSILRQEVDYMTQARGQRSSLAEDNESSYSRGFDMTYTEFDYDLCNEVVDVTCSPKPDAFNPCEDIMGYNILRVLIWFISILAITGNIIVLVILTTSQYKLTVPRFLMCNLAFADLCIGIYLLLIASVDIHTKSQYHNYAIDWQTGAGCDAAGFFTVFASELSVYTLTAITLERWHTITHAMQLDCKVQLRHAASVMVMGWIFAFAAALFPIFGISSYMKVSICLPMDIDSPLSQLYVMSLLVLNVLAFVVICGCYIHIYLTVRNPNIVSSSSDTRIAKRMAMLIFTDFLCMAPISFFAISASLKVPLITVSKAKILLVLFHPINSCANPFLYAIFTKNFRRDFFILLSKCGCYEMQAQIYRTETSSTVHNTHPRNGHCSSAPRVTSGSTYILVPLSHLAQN
Outline: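 Cho-FSHR-LUC cells were exposed to compound dilution series with EC20 FSH ([…]) and 200 μM IBMX for 1 h at 37° C. cAMP was read by HTRF (665/620 nm ratio). Effects are percent of the maximal FSH standard response.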

[2] = target: T2, follicle-stimulating hormone (FSH) receptor (Rattus norvegicus, UniProt P20395); experiment: Rat granulosa EC50 FSH (Assay B); type: cell-based; settings: rat granulosa cells; read-out: Assay B: Rat granulosa EC50 FSH
T2 construct: endogenous in cells; host or cells: primary rat granulosa cells
T2 sequence (P20395 18-692): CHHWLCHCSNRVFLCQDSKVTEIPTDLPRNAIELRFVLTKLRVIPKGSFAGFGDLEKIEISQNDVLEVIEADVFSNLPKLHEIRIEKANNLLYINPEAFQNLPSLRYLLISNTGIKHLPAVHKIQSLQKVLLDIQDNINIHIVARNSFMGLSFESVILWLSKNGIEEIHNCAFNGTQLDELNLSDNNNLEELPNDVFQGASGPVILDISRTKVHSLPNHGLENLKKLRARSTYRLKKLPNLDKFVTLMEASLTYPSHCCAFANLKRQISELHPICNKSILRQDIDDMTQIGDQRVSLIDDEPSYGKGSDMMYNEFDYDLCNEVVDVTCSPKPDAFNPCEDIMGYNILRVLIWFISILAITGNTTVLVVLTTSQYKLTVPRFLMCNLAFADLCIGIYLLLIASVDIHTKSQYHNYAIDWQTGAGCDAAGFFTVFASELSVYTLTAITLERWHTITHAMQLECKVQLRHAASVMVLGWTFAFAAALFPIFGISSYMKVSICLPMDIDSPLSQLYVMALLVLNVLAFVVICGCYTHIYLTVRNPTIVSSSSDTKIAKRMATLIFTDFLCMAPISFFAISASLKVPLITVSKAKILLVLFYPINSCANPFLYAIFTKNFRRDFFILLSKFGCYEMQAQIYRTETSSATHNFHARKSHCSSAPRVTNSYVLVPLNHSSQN
Procedure: Rat Granulosa EC50 FSH (Assay B)
The assay was performed pursuant to the teaching of Yanofsky et al. (2006) Allosteric activation of the follicle-stimulating hormone (FSH) receptor by selective, nonpeptide agonists (JBC 281(19): 13226-13233, which is incorporated by reference in the disclosure of the invention).

EC50 [1] [nM] | EC50 [2] [nM] | SMILES
< 100 | < 100 | COc1cc2c(cc1C=C(C)C)-c1c(c(C(=O)N(C)CCN3CCOC3=O)nn1-c1ccsc1)CO2 [Compound 23, 7-Methoxy-8-(2-methyl-propenyl)-1-thiophen-3-yl-1,4-dihydro-chromeno[4,3-c]pyrazole-3-carboxylic Acid methyl-[2-(2-oxo-oxazolidin-3-yl)-ethyl]-amide]
> 5000 | > 5000 | COc1cc2c(cc1OC(C)C)-c1c(c(C(=O)NCCCNC(=O)C3CCC3)nn1-c1ccsc1)CO2 [Compound 28, 8-Isopropoxy-7-methoxy-1-thiophen-3-yl-1,4-dihydro-chromeno[4,3-c]pyrazole-3-carboxylic Acid [3-(cyclobutanecarbonyl-amino)-propyl]-amide]
< 100 | 100 to 1000 | COc1cc2c(cc1C(N)=O)-c1c(c(C(=O)N(C)C(C)(C)C)nn1-c1ccsc1)CO2 [Compound 50, 7-Methoxy-1-thiophen-3-yl-1,4-dihydro-chromeno[4,3-c]pyrazole-3,8-dicarboxylic Acid 8-amide 3-(tert-butyl-methyl-amide)]
< 100 | 100 to 1000 | COc1cc2c(cc1SC(C)C)-c1c(c(C(=O)N(C)C(C)(C)C)nn1-c1ccsc1)CO2 [Compound 52, 8-isopropylsulfanyl-7-methoxy-1-thiophen-3-yl-1,4-dihydro-chromeno[4,3-c]pyrazole-3-carboxylic Acid tert-butyl-methyl-amide]
< 100 | > 5000 | COc1cc2c(cc1S(=O)(=O)C(C)C)-c1c(c(C(=O)N(C)C(C)(C)C)nn1-c1ccsc1)CO2 [Compound 79, 7-methoxy-8-(propane-2-sulfonyl)-1-thiophen-3-yl-1,4-dihydro-chromeno[4,3-c]pyrazole-3-carboxylic Acid tert-butyl-methyl-amide]
< 100 | 100 to 1000 | COc1cc2c(cc1-c1c[nH]nc1C)-c1c(c(C(=O)N3CCOCC3(C)C)nn1-c1ccsc1)CO2 [Compound 95, (3,3-Dimethyl-morpholin-4-yl)-[7-methoxy-8-(3-methyl-1H-pyrazol-4-yl)-1-thiophen-3-yl-1,4-dihydro-chromeno[4,3-c]pyrazol-3-yl]-methanone]
< 100 | 100 to 1000 | [2H]C([2H])([2H])n1cc(-c2cc3c(cc2OC)OCc2c(C(=O)N4CCOCC4(C)C)nn(-c4ccsc4)c2-3)cn1 [Compound 96]
< 100 | 1000 to 5000 | COc1cc2c(cc1-c1ccn(C)c1)-c1c(c(C(=O)N3CCOCC3(C)C)nn1-c1ccsc1)CO2 [Compound 98, (3,3-Dimethyl-morpholin-4-yl)-[7-methoxy-8-(1-methyl-1H-pyrrol-3-yl)-1-thiophen-3-yl-1,4-dihydro-chromeno[4,3-c]pyrazol-3-yl]-methanone]
< 100 | < 100 | COc1cc2c(cc1-c1ccns1)-c1c(c(C(=O)N(C)C(C)(C)C)nn1-c1ccsc1)CO2 [Compound 105, 8-Isothiazol-5-yl-7-methoxy-1-thiophen-3-yl-1,4-dihydro-chromeno[4,3-c]pyrazole-3-carboxylic acid tert-butyl-methyl-amide]

The remaining lines, values behind:

SMILES | EC50 [1] [nM] | EC50 [2] [nM]
COc1cc2c(cc1-c1cnn(C(=O)OC(C)(C)C)c1)-c1c(c(C(=O)N(C)C(C)(C)C)nn1-c1ccsc1)CO2 [Compound 20, 4-[3-(tert-Butyl-methyl-carbamoyl)-7-methoxy-1-thiophen-3-yl-1,4-dihydro-chromeno[4,3-c]pyrazol-8-yl]-pyrazole-1-carboxylic acid tert-butyl ester] | 100 to 1000 | 100 to 1000
COc1cc2c(cc1CC(C)C)-c1c(c(C(=O)N3CCCN(C(=O)C4CCCO4)CC3)nn1-c1ccsc1)CO2 (stereo not drawn) [Compound 21, (8-Isobutyl-7-methoxy-1-thiophen-3-yl-1,4-dihydro-chromeno[4,3-c]pyrazol-3-yl)-[4-(tetrahydro-furan-2-carbonyl)-[1,4]diazepan-1-yl]-methanone] | 100 to 1000 | > 5000
COC(=O)C1CCCN(C(=O)c2nn(-c3ccsc3)c3c2COc2cc(OC)c(OC(C)C)cc2-3)CC1 (stereo not drawn) [Compound 24, 1-(8-Isopropoxy-7-methoxy-1-thiophen-3-yl-1,4-dihydro-chromeno[4,3-c]pyrazole-3-carbonyl)-azepane-4-carboxylic acid methyl ester] | < 100 | 1000 to 5000
COc1cc2c(cc1OC(C)C)-c1c(c(C(=O)N3CCCC(C(=O)N4CCC4)CC3)nn1-c1ccsc1)CO2 (stereo not drawn) [Compound 26, [4-(Azetidine-1-carbonyl)-azepan-1-yl]-(8-isopropoxy-7-methoxy-1-thiophen-3-yl-1,4-dihydro-chromeno[4,3-c]pyrazol-3-yl)-methanone] | 1000 to 5000 | > 5000
COc1cc2c(cc1-c1ccn(C)n1)-c1c(c(C(=O)N(C)C(C)(C)C)nn1-c1ccsc1)CO2 [Compound 63, 7-Methoxy-8-(1-methyl-1H-pyrazol-3-yl)-1-thiophen-3-yl-1,4-dihydro-chromeno[4,3-c]pyrazole-3-carboxylic acid tert-butyl-methyl-amide] | < 100 | 100 to 1000
[2H]C([2H])([2H])N(CCN(C(=O)c1nn(-c2ccsc2)c2c1COc1cc(OC)c(CC(C)C)cc1-2)C([2H])([2H])[2H])C(C)=O [Compound 82] | < 100 | 1000 to 5000
[2H]C([2H])([2H])OCC(C)(C)N(C(=O)c1nn(-c2ccsc2)c2c1COc1cc(OC)c(CC(C)C)cc1-2)C([2H])([2H])[2H] [Compound 83] | < 100 | 100 to 1000
COc1cc2c(cc1CC(C)C)-c1c(c(C(=O)N(C)C(C)(C)C)nn1-c1cccs1)CO2 [Compound 91, 8-Isobutyl-7-methoxy-1-thiophen-2-yl-1,4-dihydro-chromeno[4,3-c]pyrazole-3-carboxylic Acid tert-butyl-methyl-amide] | < 100 | 1000 to 5000
COc1cc2c(cc1-c1ccc(C)s1)-c1c(c(C(=O)N(C)C(C)(C)C)nn1-c1ccsc1)CO2 [Compound 93, 7-Methoxy-8-(5-methyl-thiophen-2-yl)-1-thiophen-3-yl-1,4-dihydro-chromeno[4,3-c]pyrazole-3-carboxylic acid tert-butyl-methyl-amide] | < 100 | 100 to 1000
COc1cc2c(cc1-c1ccn(C)n1)-c1c(c(C(=O)N3CCOCC3(C)C)nn1-c1ccsc1)CO2 [Compound 94, (3,3-Dimethyl-morpholin-4-yl)-[7-methoxy-8-(1-methyl-1H-pyrazol-3-yl)-1-thiophen-3-yl-1,4-dihydro-chromeno[4,3-c]pyrazol-3-yl]-methanone] | < 100 | 100 to 1000
COc1cc2c(cc1SCC(C)C)-c1c(c(C(=O)N3CCOCC3(C)C)nn1-c1ccsc1)CO2 [Compound 97, (3,3-Dimethyl-morpholin-4-yl)-(8-isobutylsulfanyl-7-methoxy-1-thiophen-3-yl-1,4-dihydro-chromeno[4,3-c]pyrazol-3-yl)-methanone] | 100 to 1000 | 100 to 1000
COc1cc2c(cc1-c1ccn(C)c1)-c1c(c(C(=O)NC3(C)COC3)nn1-c1ccsc1)CO2 [Compound 99, 7-Methoxy-8-(1-methyl-1H-pyrrol-3-yl)-1-thiophen-3-yl-1,4-dihydro-chromeno[4,3-c]pyrazole-3-carboxylic acid (3-methyl-oxetan-3-yl)-amide] | 100 to 1000 | 100 to 1000
